Measured values: patent US7709507B2 (Allergan, Inc., priority 2006, dated 2010)
Where two headings read alike, the source gives them in different places.

Experiments:
Assay type in all cases: cell-based
[1] = target: T1, alpha2A receptor (Homo sapiens, UniProt P08913); experiment: Receptor Selection and Amplification Technology (RSAT) assay, Alpha 2A; details: for Alpha 2A IA (intrinsic activity): ratio of maximal effect to that of standard full agonist brimonidine (UK14304)
T1 construct: expressed in transfected cells; host or cells: NIH-3T3 cells
T1 sequence (P08913 1-465): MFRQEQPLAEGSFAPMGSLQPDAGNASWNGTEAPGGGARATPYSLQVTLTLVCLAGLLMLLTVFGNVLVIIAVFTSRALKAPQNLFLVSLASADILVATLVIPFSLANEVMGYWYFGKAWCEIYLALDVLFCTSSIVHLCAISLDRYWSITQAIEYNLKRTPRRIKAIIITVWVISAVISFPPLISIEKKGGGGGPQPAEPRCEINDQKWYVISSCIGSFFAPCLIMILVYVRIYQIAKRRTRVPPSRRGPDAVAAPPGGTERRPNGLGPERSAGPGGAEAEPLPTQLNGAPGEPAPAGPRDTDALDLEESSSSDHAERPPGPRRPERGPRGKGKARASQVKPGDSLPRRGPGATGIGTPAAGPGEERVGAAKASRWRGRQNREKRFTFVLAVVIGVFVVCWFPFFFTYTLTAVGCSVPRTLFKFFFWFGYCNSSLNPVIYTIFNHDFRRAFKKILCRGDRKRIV
Protocol: (§1) Receptor Selection and Amplification Technology (RSAT) Assay
(§2) The RSAT assay measures a receptor-mediated loss of contact inhibition that results in selective proliferation of receptor-containing cells in a mixed population of confluent cells. The increase in cell number is assessed with an appropriate transfected marker gene such as β-galactosidase, the activity of which can be easily measured in a 96-well format. Receptors that activate the G protein, Gq, elicit this response. Alpha2 receptors, which normally couple to Gi, activate the RSAT response when coexpressed with a hybrid Gq protein that has a Gi receptor recognition domain, called Gq/i5.
(§3) NIH-3T3 cells are plated at a density of 2×10^6 cells in 15 cm dishes and maintained in Dulbecco's modified Eagle's medium supplemented with 10% calf serum. One day later, cells are cotransfected by calcium phosphate precipitation with mammalian expression plasmids encoding p-SV-β-galactosidase (5-10 μg), receptor (1-2 μg) and G protein (1-2 μg). 40 μg salmon sperm DNA may also be included in the transfection mixture. […] Cells are thawed and 100 μl added to 100 μl aliquots of various concentrations of drugs in triplicate in 96-well dishes. Incubations continue 72-96 hr at 37° C. After washing with phosphate-buffered saline, β-galactosidase enzyme activity is determined by adding 200 μl of the chromogenic substrate (consisting of 3.5 mM o-nitrophenyl-β-D-galactopyranoside and 0.5% nonidet P-40 in phosphate buffered saline), incubating overnight at 30° C. and measuring optical density at 420 nm. The absorbance is a measure of enzyme activity, which depends on cell number and reflects a receptor-mediated cell proliferation. The efficacy or intrinsic activity is calculated as a ratio of the maximal effect of the drug to the maximal effect of a standard full agonist for each receptor subtype. Brimonidine, also called UK14304, the chemical structure of which is shown below, is used as the standard agonist for the alpha2A, alpha2B and alpha2C receptors. The EC50 is the concentration at which the drug effect is half of its maximal effect.
(§4) EC50 values are nanomolar. NA stands for “not active” at concentrations less than 10 micromolar. IA stands for “intrinsic activity.”

[2] = target: T2, alpha2B receptor (Homo sapiens, UniProt P18089); experiment: Receptor Selection and Amplification Technology (RSAT) assay, Alpha 2B; details: for EC50: transfected NIH-3T3 cells with Gq/i5, not active = at concentrations less than 10 micromolar; for Alpha 2B IA (intrinsic activity): ratio of maximal effect to that of standard full agonist brimonidine (UK14304)
T2 construct: expressed in transfected cells; host or cells: NIH-3T3 cells
T2 sequence (P18089 1-450): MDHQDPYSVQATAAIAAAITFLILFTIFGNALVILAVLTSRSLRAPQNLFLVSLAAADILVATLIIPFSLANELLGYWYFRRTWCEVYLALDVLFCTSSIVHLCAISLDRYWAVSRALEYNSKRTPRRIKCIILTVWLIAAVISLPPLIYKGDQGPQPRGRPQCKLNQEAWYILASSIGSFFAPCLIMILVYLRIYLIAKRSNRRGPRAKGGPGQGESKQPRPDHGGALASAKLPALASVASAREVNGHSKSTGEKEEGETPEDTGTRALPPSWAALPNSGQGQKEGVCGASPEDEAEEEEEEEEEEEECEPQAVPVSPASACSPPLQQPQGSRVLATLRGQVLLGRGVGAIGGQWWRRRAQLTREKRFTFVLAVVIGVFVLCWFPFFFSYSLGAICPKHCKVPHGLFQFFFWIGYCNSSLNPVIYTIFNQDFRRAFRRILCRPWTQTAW
Protocol: as §1, §2
NIH-3T3 cells are plated at a density of 2×10^6 cells in 15 cm dishes and maintained in Dulbecco's modified Eagle's medium supplemented with 10% calf serum. One day later, cells are cotransfected by calcium phosphate precipitation with mammalian expression plasmids encoding p-SV-β-galactosidase (5-10 μg), receptor (1-2 μg) and G protein (1-2 μg). 40 μg salmon sperm DNA may also be included in the transfection mixture. Fresh media is added on the following day and 1-2 days later, cells are harvested and frozen in 50 assay aliquots. Cells are thawed and 100 μl added to 100 μl aliquots of various concentrations of drugs in triplicate in 96-well dishes. Incubations continue 72-96 hr at 37° C. After washing with phosphate-buffered saline, β-galactosidase enzyme activity is determined by adding 200 μl of the chromogenic substrate (consisting of 3.5 mM o-nitrophenyl-β-D-galactopyranoside and 0.5% nonidet P-40 in phosphate buffered saline), incubating overnight at 30° C. and measuring optical density at 420 nm. The absorbance is a measure of enzyme activity, which depends on cell number and reflects a receptor-mediated cell proliferation. The efficacy or intrinsic activity is calculated as a ratio of the maximal effect of the drug to the maximal effect of a standard full agonist for each receptor subtype. Brimonidine, also called UK14304, the chemical structure of which is shown below, is used as the standard agonist for the alpha2A, alpha2B and alpha2C receptors. The EC50 is the concentration at which the drug effect is half of its maximal effect.
The results of the RSAT assay with several exemplary compounds of the invention are disclosed in Table 1 above together with the chemical formulas of these exemplary compounds. EC50 values are nanomolar. NA stands for “not active” at concentrations less than 10 micromolar. IA stands for “intrinsic activity.”

[3] = target: T3, alpha2C receptor (Homo sapiens, UniProt P18825); experiment: Receptor Selection and Amplification Technology (RSAT) assay, Alpha 2C
T3 construct: expressed in transfected cells; host or cells: NIH-3T3 cells
T3 sequence (P18825 1-462): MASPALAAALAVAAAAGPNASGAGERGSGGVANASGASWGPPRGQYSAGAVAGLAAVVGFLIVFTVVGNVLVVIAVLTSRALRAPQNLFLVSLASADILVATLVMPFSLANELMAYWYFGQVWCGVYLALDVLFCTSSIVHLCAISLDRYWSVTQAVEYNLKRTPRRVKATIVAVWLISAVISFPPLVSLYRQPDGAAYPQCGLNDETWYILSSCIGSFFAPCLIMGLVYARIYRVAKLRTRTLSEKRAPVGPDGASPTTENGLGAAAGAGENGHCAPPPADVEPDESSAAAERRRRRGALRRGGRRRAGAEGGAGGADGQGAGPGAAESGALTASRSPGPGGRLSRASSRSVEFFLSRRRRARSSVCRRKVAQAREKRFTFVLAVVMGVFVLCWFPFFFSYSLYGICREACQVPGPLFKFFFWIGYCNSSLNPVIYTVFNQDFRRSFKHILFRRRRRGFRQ
Protocol: as §1, §2, §3, §4

[4] = RSAT, transfected NIH-3T3 cells with Gq/i5, not active = at concentrations less than 10 micromolar

Compound | Alpha 2A EC50 [1, 4] | EC50 ([2]; RSAT, read-out: Alpha 2B EC50) | Alpha 2B IA (intrinsic activity) [2] | Alpha 2C EC50 [3, 4] | EC50 ([1]; RSAT, transfected NIH-3T3 cells with Gq/i5, not active = at concentrations less than 10 micromolar, read-out: Alpha 2A EC50) | Alpha 2A IA (intrinsic activity) [1] | EC50 ([3]; RSAT, transfected NIH-3T3 cells with Gq/i5, not active = at concentrations less than 10 micromolar, read-out: Alpha 2C EC50) | Alpha 2C IA (intrinsic activity) ([3]; ratio of maximal effect to that of standard full agonist brimonidine (UK14304)) | EC50 [1] | EC50 ([2]; Alpha 2B EC50, RSAT)
O=C(NCCF)NC(Cc1ccccc1)C1CCCCC1 (centres unmarked) [1-(1-cyclohexyl-2-phenylethyl)-3-(2-fluoroethyl)urea] | not active | 640 nM | 0.33 | not active | – | – | – | – | – | –
O=C(NCCF)NC(Cc1ccccc1)c1ccccc1F (centres unmarked) | – | 103 nM | 0.79 | – | 2140 nM | 0.35 | 101 nM | 0.31 | – | –
O=C(NCCF)NC(Cc1ccccc1Cl)c1ccccc1 (centres unmarked) | not active | 606 nM | 0.63 | not active | – | – | – | – | – | –
Cc1cccc(C(Cc2ccncc2)NC(=O)NCCF)c1 (centres unmarked) [1-(2-fluoro-ethyl)-3-(2-pyridin-4-yl-1-m-tolyl-ethyl)-urea] | – | – | 1.1 | not active | – | 0.44 | – | – | 341 nM | 37.7 nM
Cc1cccc(C(Cc2ccccc2)NC(=O)NCCF)c1 (centres unmarked) [drawing 72, 1-(2-fluoroethyl)-3-[1-(3-methylphenyl)-2-phenylethyl]urea] | not active | 29.8 nM | 0.91 | not active | – | – | – | – | – | –
